Results from ChEMBL document CHEMBL4043067, “Synthesis and cytotoxic activities of goniothalamins and derivatives” (Bioorg Med Chem, 2017).
pIC50: −log10 of the molar value.

Columns and labels:
A549 = assay: Antiproliferative activity against human A549 cells after 48 hrs by CellTiter-Glo luminescent cell viability assay; format: functional, cell-based; conditions: A549, 48 h
MCF7 = assay: Antiproliferative activity against human MCF7 cells after 48 hrs by CellTiter-Glo luminescent cell viability assay; format: functional, cell-based; conditions: MCF7, 48 h
HBL-100 = assay: Antiproliferative activity against human HBL100 cells after 48 hrs by CellTiter-Glo luminescent cell viability assay; format: functional, cell-based; conditions: HBL-100, 48 h
Saccharomyces cerevisiae [1] = assay: Cytotoxicity against Saccharomyces cerevisiae YRE1001 up to 100 ug/ml after 48 hrs by liquid drug assay
Saccharomyces cerevisiae [2] = assay: Inhibition of Pdr5 ATPase activity in Saccharomyces cerevisiae YRE1001 plasma membranes assessed as residual activity at 250 ug/ml after 20 mins in presence of ATP by colorimetric assay relative to control
Saccharomyces cerevisiae [3] = assay: Inhibition of Pdr5 ATPase activity in Saccharomyces cerevisiae YRE1001 plasma membranes assessed as residual activity at 125 ug/ml after 20 mins in presence of ATP by colorimetric assay relative to control
Saccharomyces cerevisiae [4] = assay: Inhibition of Pdr5 ATPase activity in Saccharomyces cerevisiae YRE1001 plasma membranes assessed as residual activity at 13 ug/ml after 20 mins in presence of ATP by colorimetric assay relative to control
Saccharomyces cerevisiae [5] = assay: Inhibition of Pdr5 in Saccharomyces cerevisiae YRE1001 plasma membranes assessed as reduction in rhodamine 6G transport by measuring relative fluorescence intensity at 125 ug/ml preincubated with enzyme followed by ATP addition measured for 20 mins by fluorescence assay relative to control; set-up: scale not given: the % may be the effect or the level left
Saccharomyces cerevisiae [6] = assay: Inhibition of Pdr5 in Saccharomyces cerevisiae YRE1001 plasma membranes assessed as reduction in rhodamine 6G transport by measuring relative fluorescence intensity at 13 ug/ml preincubated with enzyme followed by ATP addition measured for 20 mins by fluorescence assay relative to control; set-up: scale not given: the % may be the effect or the level left
Saccharomyces cerevisiae [7] = assay: Inhibition of Pdr5 ATPase activity in Saccharomyces cerevisiae YRE1001 plasma membranes assessed as residual activity at 500 ug/ml after 20 mins in presence of ATP by colorimetric assay relative to control
Saccharomyces cerevisiae [8] = assay: Inhibition of Pdr5 ATPase activity in Saccharomyces cerevisiae YRE1001 plasma membranes assessed as residual activity at 50 ug/ml after 20 mins in presence of ATP by colorimetric assay relative to control
Saccharomyces cerevisiae [9] = assay: Inhibition of Pdr5 ATPase activity in Saccharomyces cerevisiae YRE1001 plasma membranes assessed as residual activity at 5 ug/ml after 20 mins in presence of ATP by colorimetric assay relative to control
Saccharomyces cerevisiae [10] = assay: Inhibition of Pdr5 in Saccharomyces cerevisiae YRE1001 plasma membranes assessed as reduction in rhodamine 6G transport by measuring relative fluorescence intensity at 500 ug/ml preincubated with enzyme followed by ATP addition measured for 20 mins by fluorescence assay relative to control; set-up: scale not given: the % may be the effect or the level left
Saccharomyces cerevisiae [11] = assay: Inhibition of Pdr5 in Saccharomyces cerevisiae YRE1001 plasma membranes assessed as reduction in rhodamine 6G transport by measuring relative fluorescence intensity at 50 ug/ml preincubated with enzyme followed by ATP addition measured for 20 mins by fluorescence assay relative to control; set-up: scale not given: the % may be the effect or the level left
Saccharomyces cerevisiae [12] = assay: Inhibition of Pdr5 in Saccharomyces cerevisiae YRE1001 plasma membranes assessed as reduction in rhodamine 6G transport by measuring relative fluorescence intensity at 5 ug/ml preincubated with enzyme followed by ATP addition measured for 20 mins by fluorescence assay relative to control; set-up: scale not given: the % may be the effect or the level left

| SMILES | pIC50 (A549) | pIC50 (MCF7) | Activity (Saccharomyces cerevisiae [2]) | Activity (Saccharomyces cerevisiae [3]) | Activity (Saccharomyces cerevisiae [4]) | Activity (Saccharomyces cerevisiae [5]) | Activity (Saccharomyces cerevisiae [6]) | Activity (Saccharomyces cerevisiae [7]) | Activity (Saccharomyces cerevisiae [8]) | Activity (Saccharomyces cerevisiae [9]) | Activity (Saccharomyces cerevisiae [10]) | Activity (Saccharomyces cerevisiae [11]) | Activity (Saccharomyces cerevisiae [12]) | pIC50 (HBL-100) | Activity (Saccharomyces cerevisiae [1]) |
| --- | --- | --- | --- | --- | --- | --- | --- | --- | --- | --- | --- | --- | --- | --- | --- |
| O=C1C=CC[C@@H](/C=C/c2ccc(F)cc2)O1 | < 4.00 | < 4.00 | – | – | – | – | – | 26.3% | 40.7% | 71% | 10% | 75% | 99% | < 4.00 | Toxic |
| O=C1CCC[C@H]([C@@H]2C[C@H]2c2ccccc2)O1 | < 4.00 | < 4.00 | – | – | – | – | – | – | – | – | – | – | – | < 4.00 | Toxic |
| O=C1C=CC[C@@H](/C=C/c2ccccc2)O1 | 4.15 | < 4.00 | – | – | – | – | – | – | – | – | – | – | – | < 4.00 | Toxic |
| COc1ccc(/C=C/[C@H]2CC=CC(=O)O2)cc1 | < 4.00 | < 4.00 | – | – | – | – | – | 0% | 8.7% | 25.7% | 0% | 4% | 44% | < 4.00 | Non-Toxic |
| C[C@@H](Cc1ccccc1)[C@H]1CCCC(=O)O1 | < 4.00 | < 4.00 | – | – | – | – | – | – | – | – | – | – | – | < 4.00 | Toxic |
| COc1ccc(/C=C/[C@@H]2CC=CC(=O)O2)cc1 | < 4.00 | 4.05 | – | – | – | – | – | – | – | – | – | – | – | < 4.00 | Toxic |
| O=C1C=CC[C@H]([C@@H]2C[C@H]2c2ccccc2)O1 | 4.20 | < 4.00 | – | – | – | – | – | – | – | – | – | – | – | 4.36 | Toxic |
| O=C1C=CC[C@@H](/C=C/C2CCCCC2)O1 | 4.16 | < 4.00 | – | – | – | – | – | 53% | 74.7% | 88% | 0% | 37% | 86% | 4.32 | Toxic |
| O=C1CCC[C@@H]([C@H]2C[C@@H]2c2ccccc2)O1 | < 4.00 | < 4.00 | – | – | – | – | – | – | – | – | – | – | – | < 4.00 | Toxic |
| C[C@H](Cc1ccccc1)[C@H]1CCCC(=O)O1 | < 4.00 | < 4.00 | – | – | – | – | – | – | – | – | – | – | – | < 4.00 | Toxic |
| O=C1C=CC[C@@H](/C=C/c2ccc([N+](=O)[O-])cc2)O1 | < 4.00 | < 4.00 | – | – | – | – | – | – | – | – | – | – | – | < 4.00 | Toxic |
| O=C1CCC[C@H]([C@H]2C[C@@H]2c2ccccc2)O1 | < 4.00 | < 4.00 | – | – | – | – | – | – | – | – | – | – | – | < 4.00 | Toxic |

The next compounds have a higher pIC50 (A549) than those just listed; values first:

| pIC50 (A549) | pIC50 (MCF7) | Activity (Saccharomyces cerevisiae [2]) | Activity (Saccharomyces cerevisiae [3]) | Activity (Saccharomyces cerevisiae [4]) | Activity (Saccharomyces cerevisiae [5]) | Activity (Saccharomyces cerevisiae [6]) | Activity (Saccharomyces cerevisiae [7]) | Activity (Saccharomyces cerevisiae [8]) | Activity (Saccharomyces cerevisiae [9]) | Activity (Saccharomyces cerevisiae [10]) | Activity (Saccharomyces cerevisiae [11]) | Activity (Saccharomyces cerevisiae [12]) | SMILES | pIC50 (HBL-100) | Activity (Saccharomyces cerevisiae [1]) |
| --- | --- | --- | --- | --- | --- | --- | --- | --- | --- | --- | --- | --- | --- | --- | --- |
| 4.81 | 4.54 | 50% | 51% | 79.3% | 21% | 54% | – | – | – | – | – | – | O=C1C=CC[C@H](/C=C/c2ccc([N+](=O)[O-])cc2)O1 | 5.17 | Toxic |
| 4.94 | 4.32 | – | – | – | – | – | – | – | – | – | – | – | O=C1C=CC[C@H]([C@H]2C[C@@H]2c2ccccc2)O1 | 4.84 | Toxic |
| 4.51 | < 4.00 | – | – | – | – | – | 56% | 79% | 98% | -8% | 18% | 91% | O=C1C=CC[C@H](/C=C/C2CCCCC2)O1 | 4.54 | Toxic |
| 5.24 | 4.26 | – | – | – | – | – | 24.3% | 30% | 71.7% | -2% | 10% | 60% | O=C1C=CC[C@H](/C=C/c2ccccc2)O1 [GONIOTHALAMIN] | 4.68 | Toxic |
| 4.46 | < 4.00 | – | – | – | – | – | – | – | – | – | – | – | O=C1C=CCC(/C=C/c2ccccc2)O1 (racemic) | 4.65 | Toxic |
| 4.82 | 4.17 | – | – | – | – | – | – | – | – | – | – | – | O=C1C=CC[C@@H]([C@H]2C[C@@H]2c2ccccc2)O1 | 4.46 | Toxic |
| 4.99 | 4.12 | – | – | – | – | – | – | – | – | – | – | – | O=C1C=CC[C@H](/C=C/c2ccc(F)cc2)O1 | 4.85 | Toxic |
